Reference: US10954214B2 (Janssen Pharmaceutica NV, priority 2016, dated 2021)

How the values were obtained:
[1] = target: full-length MALT1 protein (Strep-MALT1(1-824)-His) (Homo sapiens (Human), UniProt Q9UDY8); assay: MALT1 Biochemical Protease Assay (Ac-LRSR-AMC substrate); settings: 10 nM FL MALT1, 200 μM Ac-LRSR-AMC, 4 h at RT; read-out: MALT1_Biochemical activity (Ac-LRSR-amc) IC50
In short: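 Full-length MALT1 pre-incubated with compounds (30 μM to 0.5 nM, 11 threefold steps) for 50 min at RT. After Ac-LRSR-AMC was added, the reaction ran 4 h at RT and AMC fluorescence was read. IC50 and Hill slope from curve fitting against no-enzyme and no-compound controls.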

[2] = system: IL6 secretion by OCI-LY3 ABC-DLBCL cells; assay: Human IL6 Mesoscale assay (OCI-LY3); assay type: cell-based; settings: Homo sapiens, 24 h
In short: (§1)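 Compounds tested from 15 μM to 58.6 nM (twofold, 9 concentrations) on 100,000 cells per well over 24 h at 37° C, without beta-mercaptoethanol. Secreted cytokine in supernatant detected by MSD electrochemiluminescence; scaling used DMSO as maximum and RN486 as full inhibition.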

[3] = system: IL10 secretion by OCI-LY3 ABC-DLBCL cells; assay: Human IL10 Mesoscale assay (OCI-LY3); assay type: cell-based; settings: Homo sapiens, 24 h
In short: as §1

OCI-Ly3 cells = assay: 4-day proliferation assay, OCI-Ly3; assay type: cell-based, human; settings: Homo sapiens, 96 h, 4 days incubation, CellTiterGLO, read-out: Anti-proliferation: OCI-LY-3 IC50
In short: (§2)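 TMD8 and OCI-Ly3 cells were seeded at 10,000 per well and grown 4 days at 37° C, 5% CO2 without beta-mercaptoethanol. Viability was read by CellTiter-Glo luminescence. IC50 and Hill slope were fitted relative to the low control median.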

TMD8 cells = assay: 4-day proliferation assay, TMD8; assay type: cell-based; settings: Homo sapiens, 96 h, 4 days incubation, CellTiterGLO, read-out: Anti-proliferation: TMD-8 IC50
In short: as §2

Chain of full-length MALT1 protein (Strep-MALT1(1-824)-His) (Q9UDY8 whole entry): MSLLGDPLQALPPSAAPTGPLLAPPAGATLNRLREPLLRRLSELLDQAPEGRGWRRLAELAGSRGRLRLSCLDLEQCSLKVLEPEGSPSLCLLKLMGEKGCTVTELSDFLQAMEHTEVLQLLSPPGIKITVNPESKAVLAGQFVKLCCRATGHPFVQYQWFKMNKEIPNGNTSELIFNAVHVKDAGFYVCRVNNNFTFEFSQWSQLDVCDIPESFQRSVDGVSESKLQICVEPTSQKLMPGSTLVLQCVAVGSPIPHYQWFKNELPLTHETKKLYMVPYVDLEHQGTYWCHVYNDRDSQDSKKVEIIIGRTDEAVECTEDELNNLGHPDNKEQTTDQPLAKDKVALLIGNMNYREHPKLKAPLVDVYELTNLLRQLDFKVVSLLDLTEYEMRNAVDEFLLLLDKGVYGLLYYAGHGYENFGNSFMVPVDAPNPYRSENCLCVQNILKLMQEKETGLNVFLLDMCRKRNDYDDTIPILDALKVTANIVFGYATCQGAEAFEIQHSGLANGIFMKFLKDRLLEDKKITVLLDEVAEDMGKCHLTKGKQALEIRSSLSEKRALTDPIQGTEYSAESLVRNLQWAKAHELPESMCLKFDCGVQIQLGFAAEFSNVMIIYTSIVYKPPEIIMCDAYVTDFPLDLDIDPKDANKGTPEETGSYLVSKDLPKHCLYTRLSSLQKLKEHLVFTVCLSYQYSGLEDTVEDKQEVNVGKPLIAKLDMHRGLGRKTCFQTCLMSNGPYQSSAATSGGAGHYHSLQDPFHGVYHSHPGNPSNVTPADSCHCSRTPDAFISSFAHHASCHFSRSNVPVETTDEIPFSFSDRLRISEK

Row | Compound | IC50 [1] [nM] | IC50 [2] [nM] | IC50 [3] [nM] | IC50 (OCI-Ly3 cells) [nM] | IC50 (TMD8 cells) [nM]
1 | Nc1cnn(-c2ncc(NC(=O)c3cnn(-c4cccc5ncccc45)c3C(F)(F)F)cc2Cl)n1 [Cpd 154, N-(6-(4-amino-2H-1,2,3-triazol-2-yl)-5-chloropyridin-3-yl)-1-(quinolin-5-yl)-5-(trifluoromethyl)-1H-pyrazole-4-carboxamide] | 19 | 98 | 95 | 395 | 2240
2 | O=C(Nc1cnc(-n2nccn2)c(Cl)c1)c1cnn(-c2cncc3sccc23)c1C(F)(F)F [Cpd 447, N-(5-chloro-6-(2H-1,2,3-triazol-2-yl)pyridin-3-yl)-1-(thieno[2,3-c]pyridin-4-yl)-5-(trifluoromethyl)-1H-pyrazole-4-carboxamide] | 447 | 46 | 42 | 313 | 2190
3 | O=C(O)c1cnn(-c2ncc(NC(=O)c3cnn(-c4cccc5ncccc45)c3C(F)(F)F)cc2Cl)n1 [Cpd 109, 2-(3-chloro-5-(1-(quinolin-5-yl)-5-(trifluoromethyl)-1H-pyrazole-4-carboxamido)pyridin-2-yl)-2H-1,2,3-triazole-4-carboxylic acid] | 10 | 28 | 31 | > 20000 | > 20000
4 | CC(O)c1ncc(-n2ncc(C(=O)Nc3cnc(-n4nccn4)c(Cl)c3)c2C(F)(F)F)c2ccsc12 (stereo not shown) [Cpd 376, N-(5-chloro-6-(2H-1,2,3-triazol-2-yl)pyridin-3-yl)-1-(7-(1-hydroxyethyl)thieno[2,3-c]pyridin-4-yl)-5-(trifluoromethyl)-1H-pyrazole-4-carboxamide] | 24 | 58 | 50 | 1070 | 1440
5 | N#Cc1cc(NC(=O)c2cnn(-c3cccc4ncsc34)c2C(F)(F)F)cnc1-n1nccn1 [Cpd 114, 1-(benzo[d]thiazol-7-yl)-N-(5-cyano-6-(2H-1,2,3-triazol-2-yl)pyridin-3-yl)-5-(trifluoromethyl)-1H-pyrazole-4-carboxamide] | 11 | 34 | 29 | 193 | 2690
6 | Nc1cnnn1-c1ncc(NC(=O)c2cnn(-c3cccc4c(=O)[nH]ccc34)c2C(F)(F)F)cc1Cl [Cpd 178, N-(6-(5-amino-1H-1,2,3-triazol-1-yl)-5-chloropyridin-3-yl)-1-(1-oxo-1,2-dihydroisoquinolin-5-yl)-5-(trifluoromethyl)-1H-pyrazole-4-carboxamide] | 42 | 589 | 427 | 2800 | > 20000
7 | N#Cc1cc(NC(=O)c2cnn(-c3ccc(F)c4ncccc34)c2C(F)(F)F)cnc1-n1nccn1 [Cpd 308, N-(5-cyano-6-(2H-1,2,3-triazol-2-yl)pyridin-3-yl)-1-(8-fluoroquinolin-5-yl)-5-(trifluoromethyl)-1H-pyrazole-4-carboxamide] | 58 | 219 | 166 | 617 | 4570
8 | N#Cc1cc(NC(=O)c2cnn(-c3cnc(N)c4c(F)cccc34)c2C(F)(F)F)cnc1-n1nccn1 [Cpd 111, 1-(1-amino-8-fluoroisoquinolin-4-yl)-N-(5-cyano-6-(2H-1,2,3-triazol-2-yl)pyridin-3-yl)-5-(trifluoromethyl)-1H-pyrazole-4-carboxamide] | 10 | 107 | 89 | 284 | 3310
9 | Cc1nc(-n2nccn2)c(C#N)cc1NC(=O)c1cnn(-c2cnc(N)c3ccccc23)c1C(F)(F)F [Cpd 338, 1-(1-aminoisoquinolin-4-yl)-N-(5-cyano-2-methyl-6-(2H-1,2,3-triazol-2-yl)pyridin-3-yl)-5-(trifluoromethyl)-1H-pyrazole-4-carboxamide] | 58 | 45 | 31 | 1150 | 1440
10 | O=C(Nc1cnc(-n2nccn2)c(Cl)c1)c1cnn(-c2cncc3c(F)cccc23)c1C(F)(F)F [Cpd 117, N-(5-chloro-6-(2H-1,2,3-triazol-2-yl)pyridin-3-yl)-1-(8-fluoroisoquinolin-4-yl)-5-(trifluoromethyl)-1H-pyrazole-4-carboxamide] | 13 | 12 | 12 | 211 | 1580
11 | Cc1cnn(-c2ncc(NC(=O)c3cnn(-c4cccc5ncccc45)c3C(F)(F)F)cc2Cl)n1 [Cpd 125, N-(5-chloro-6-(4-methyl-2H-1,2,3-triazol-2-yl)pyridin-3-yl)-1-(quinolin-5-yl)-5-(trifluoromethyl)-1H-pyrazole-4-carboxamide] | 13 | 46 | 24 | 285 | 1020
12 | Cc1nc(-n2nccn2)c(Cl)cc1NC(=O)c1cnn(-c2cncc3ccccc23)c1C(F)(F)F [Cpd 191, N-(5-chloro-2-methyl-6-(2H-1,2,3-triazol-2-yl)pyridin-3-yl)-1-(isoquinolin-4-yl)-5-(trifluoromethyl)-1H-pyrazole-4-carboxamide] | 36 | 22 | 13 | 866 | 912
13 | Cc1nc(-n2nccn2)c(C#N)cc1NC(=O)c1cnn(-c2cccc3nnsc23)c1C(F)(F)F [Cpd 314, 1-(benzo[d][1,2,3]thiadiazol-7-yl)-N-(5-cyano-2-methyl-6-(2H-1,2,3-triazol-2-yl)pyridin-3-yl)-5-(trifluoromethyl)-1H-pyrazole-4-carboxamide] | 39 | 1020 | 692 | 631 | 1860
14 | O=C(Nc1cnc(-n2nccn2)c(Cl)c1)c1cnn(-c2cccn3nccc23)c1C(F)(F)F [Cpd 197, N-(5-chloro-6-(2H-1,2,3-triazol-2-yl)pyridin-3-yl)-1-(pyrazolo[1,5-a]pyridin-4-yl)-5-(trifluoromethyl)-1H-pyrazole-4-carboxamide] | 15 | 123 | 85 | 295 | 7410
15 | Cc1nc(-c2ccn(C)n2)c(Cl)cc1NC(=O)c1cnn(-c2cccc3c(=O)[nH]ccc23)c1C(F)(F)F [Cpd 169, N-(5-chloro-2-methyl-6-(1-methyl-1H-pyrazol-3-yl)pyridin-3-yl)-1-(1-oxo-1,2-dihydroisoquinolin-5-yl)-5-(trifluoromethyl)-1H-pyrazole-4-carboxamide] | 72 | 166 | 182 | 1750 | 8910
16 | O=C(Nc1cnc(-c2ncco2)c(Cl)c1)c1cnn(-c2cccc3c(=O)[nH]ccc23)c1C(F)(F)F [Cpd 127, N-(5-chloro-6-(oxazol-2-yl)pyridin-3-yl)-1-(1-oxo-1,2-dihydroisoquinolin-5-yl)-5-(trifluoromethyl)-1H-pyrazole-4-carboxamide] | 15 | 29 | 26 | 432 | 11200
17 | Cc1nc(-n2nccn2)c(Cl)cc1NC(=O)c1cnn(-c2cccc3nnsc23)c1C(F)(F)F [Cpd 121, 1-(benzo[d][1,2,3]thiadiazol-7-yl)-N-(5-chloro-2-methyl-6-(2H-1,2,3-triazol-2-yl)pyridin-3-yl)-5-(trifluoromethyl)-1H-pyrazole-4-carboxamide] | 22 | 58 | 50 | 692 | 1900
18 | O=C(Nc1cnc(-n2nccn2)c(Cl)c1)c1cnn(-c2cccc3ncc(Cl)n23)c1C(F)(F)F [Cpd 201, N-(5-chloro-6-(2H-1,2,3-triazol-2-yl)pyridin-3-yl)-1-(3-chloroimidazo[1,2-a]pyridin-5-yl)-5-(trifluoromethyl)-1H-pyrazole-4-carboxamide] | 28 | 117 | 120 | 782 | 3630
19 | N#Cc1cc(NC(=O)c2cnn(-c3cccc4scnc34)c2C(F)(F)F)cnc1-n1nccn1 [Cpd 316, 1-(benzo[d]thiazol-4-yl)-N-(5-cyano-6-(2H-1,2,3-triazol-2-yl)pyridin-3-yl)-5-(trifluoromethyl)-1H-pyrazole-4-carboxamide] | 37 | 251 | 182 | 1450 | 3090
20 | N#Cc1cc(NC(=O)c2cnn(-c3cccc4c(=O)[nH]ccc34)c2C(F)(F)F)cnc1-n1nccn1 [Cpd 113, N-(5-cyano-6-(2H-1,2,3-triazol-2-yl)pyridin-3-yl)-1-(1-oxo-1,2-dihydroisoquinolin-5-yl)-5-(trifluoromethyl)-1H-pyrazole-4-carboxamide] | 11 | 170 | 79 | 912 | 13800
